# Assays:
# [1] = Sulfur compound adsorption in the presence of mint oil (sniff test), hydrogen sulfide; conditions: H2S 50 ppb, mint oil 50 ppb, adsorbent 0.1% w/v, 20 minutes of shaking, sniffed
# Method: (§1) All dilution operations were done using water under nitrogen in capped bottles. Hydrogen sulfide was measured as a gas in a syringe and injected into a sealed bottle containing deoxygenated water. The concentration (ppb w/w) was calculated assuming all of the hydrogen sulfide (H2S) dissolved in the water after shaking, and using the density of the gas.
# (§2) All of the liquid compounds were handled by syringe. Concentrations of thiols are reported assuming that their specific gravity is 1. Adsorbents, as made by Example 1, were weighed as dry powders into bottles before sealing and before the addition of room temperature dilute sulfide solution. After 20 minutes of shaking, the bottle was unsealed and the contents carefully sniffed.
# (§3) The object of the experiment was to remove the thiol odor but not to remove the mint oil aroma.
# [2] = Sulfur compound adsorption in the presence of mint oil (sniff test), diallyl disulfide; conditions: Diallyl disulfide 5 ppb (w/v), mint oil 50 ppb, adsorbent 0.1% w/v, 20 minutes of shaking, sniffed
# Method: as §1, §2, §3
# [3] = Sulfur compound adsorption in the presence of mint oil (sniff test), propane thiol; conditions: Propane thiol 5 ppb (w/v), mint oil 50 ppb, adsorbent 0.1% w/v, 20 minutes of shaking, sniffed
# Method: as §1, §2, §3
# [4] = Sulfur compound adsorption in the presence of mint oil (sniff test), allyl mercaptan; conditions: Allyl mercaptan 5 ppb (w/v), mint oil 50 ppb, adsorbent 0.1% w/v, 20 minutes of shaking, sniffed
# Method: as §1, §2, §3
# [5] = Activity of metal complexes in removing garlic odor (sniffed for residual odor); set-up: key: ++: complete odor removal; +: slight odor remaining; −: no odor removal; NA: complex was not insoluble; ?: allyl mercaptan smell masked by methionine smell; conditions: 5 ml solution with 627 nmol allyl mercaptan in water, sealed vial, 10 minutes, room temperature
# Method: Each amino acid solution was made by dissolving 2.74 g of the amino acid into 40 ml of water. The complex with the metal was synthesized as described in the second step of Example 1.
# Odor removal was tested using 5 ml of a solution containing 627 nmol of allyl mercaptan in water. A suspension of the metal complex was mixed with the mercaptan solution, reacted in a sealed vial for 10 minutes at room temperature, and then sniffed for residual odor.
substance,measurement,setting,value
Cystine-copper Complex,"Smell Garlic, Effect",[1],None
same,"Smell Mint, Effect",[1],strong
same,"Smell Garlic, Effect",[2],v. weak
same,"Smell Garlic, Effect",[3],Faint
same,"Smell Garlic, Effect",[4],v. faint
same,Activity in removing garlic odor,[5],++

# From patent US6403642B1, “Sulfur adsorbent for reducing onion or garlic breath odor” (PQ Holding, Inc., priority 1999, dated 2002)
